Assay type in all cases: in vivo, rat
Assay [1] is described as follows: Body weight of rats over the 10-day period (Example 3). To be noted: Sennosides 3.35 mg/kg/day; for Body weight Difference, Mean / Body weight End Day 10, Mean: group mean; for Body weight Difference, Mean / Body weight Difference: Day 10 minus Day 1; for Body weight Difference / Body weight End Day 10: individual rats. Also noted: Body weight Difference: unit not given here. The method in brief:
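Healthy male S.D. rats, 6 per treatment, given test substances daily at 4–24 mg/kg/day (dose per substance), with untreated and 3.35 mg/kg/day sennoside controls. Body weight recorded each day over 10 days; standard food and water ad libitum, 12-hour light/dark cycle.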

In assay [2] the test system is healthy male S.D. rats. The assay can be described thus: Intestinal motility test after the feces tests (Example 3). The settings on record: after the 10-day feces tests; control rats 61.1%; dose not stated. The method, then: After the above-discussed feces tests, intestinal motility tests were conducted. Before the experiment, the rats were fasted for at least sixteen hours. The rats were then given the aforementioned drugs or extracts. After 3 hours, each rat was given 3 ml/kg of 0.5% methylcellulose solution-0.5% Evans blue dye. Each rat was sacrificed 30 minutes later and its abdominal cavity was cut open. The entire small intestine was extracted and carefully straightened. The entire stretch between the pylorous and cecum was measured as the small intestine length. The distance traveled by Evans blue dye along the intestines was also measured. During dissection, any unusual observations were recorded and photographed. The intestinal motility function was calculated in the following formula: Intestine motility=(Evans blue dye length/small intestine length)×100%. After finishing the feces tests, intestinal motility tests were conducted in the same manner described above. During dissection, any unusual observations were recorded and photographed. For comparison within the groups, a Post hoc Comparison was applied with p<0.05 indicating significant differences.

Assay [3] deals with healthy male S.D. rats. The assay can be described thus: Feces production in rats given Rheum palmatum Linne extracts for three weeks (Example 2). The settings on record: oral everyday, Rheum palmatum crude extract 500, Bisacodyl 1.75, Sennosides 3.55, STD03 180, STD05-1 12, STD05-2 24 mg/kg; for Water content: feces; for Pellet count / Wet Weight: total of the six rats in the group. Here is the method: The laxative activities by Rheum palmatum Linne extracts were studied. A crude Rheum palmatum Linne extract and STD05 were obtained from SunTen Phytotech Co., Ltd. (Jhonghe City, Taiwan). Commercial available laxatives, Through® (Chung Mei Pharmaceutical Co., Ltd.; active ingredient: Sennosides 20 mg, as Sennosides A+B 12 mg, Lot. 009A 051) and Dulcolax® (Boehringer Ingelheim, Taiwan, Ltd.; active ingredient: Bisacodyl; Lot. 480-4942) were obtained from a pharmacy.
Forty-two healthy male S.D. rats (8 weeks old; National Laboratory Animal Center, Taiwan) were divided into seven groups (six in each) and tested for the laxative activity by Rheum palmatum Linne extracts. The rats in one group were not fed with any extract or drug and used as negative controls. The rats in the second and third group were given Sennosides (3.55 mg/kg) and Bisacodyl (1.75 mg/kg), respectively, and used as positive controls. The Rats in the other four groups were given Rheum palmatum Linne crude extract (500 mg/kg), filtered crude extract STD03 (180 mg/kg), and STD05 (STD05-1: 12 mg/kg and STD05-2: 24 mg/kg), respectively. All substances were administered orally everyday for three weeks.
The experiments were carried out under conditions in which temperature, humidity, and lighting were all controlled. Each rat was fed standard rat food and water ad libitum in housing that provided a 12-hour light/dark cycle. The rats were divided into seven groups according to the body weights.
The first part of the experiment studied the effect of the above-mentioned extracts on feces production. During the three-week period, any rat that appeared dying was euthanized, dissected, and studied to check for any illness or injures. Any complications or illness were analyzed by H&E stains to determine the cause of death and to allow for dosage reconsiderations for future experiments.
During this period, the body weights of the rats were weighed each day and recorded. Feces of each rat were studied three times during the period for any unusual observations. Specifically, the amounts of feces were weighed on Days 11, 15, 18, and 21. During observation, each rat was placed in a metabolic cage. Feces were collected every twenty-four hours. The number of collected feces pellets was counted, and the pellets' shapes and colors were evaluated. After weighing the moist feces, they were dried in an oven at 100° C. for twenty-four hours. The water content from the feces was calculated according to the following formula: Water content percentage=[(wet weight−dry weight)/wet weight]×100%.
Intestine motility data were expressed as mean±SD. Data were analyzed using the one-way ANOVA method. For comparison within the groups, a Post hoc Comparison was applied. In both feces production and intestine motility analyses, p<0.05 indicates significant differences. For the feces production tests, the data for each group and each time point represent the total wet weight or pellet count of the six rats in the group.

Where [4] appears, read: Group I, STD05 8 mg/kg, ARE 8 mg/kg, Aloe-emodin 4 mg/kg, Rhein 4 mg/kg.
The mark [5] stands for this setting: Group II, STD05 24 mg/kg, ARE 24 mg/kg, Chrysophanol 4 mg/kg, Emodin 4 mg/kg.

Where “and” joins values, the source holds several entries; their conditions need not be identical. Equal values may be shown once.

With Sennosides, in assay [1] (setting [4]), the Body weight Difference, Mean came out at 53 g; the Body weight End Day 10, Mean is 338 g; the “Body weight Difference” value is 45 (2×) and 60 and 35 and 65 and 70; the “Body weight End Day 10” value is 325 and 330 and 350 (2×) and 310 and 365. In assay [1] (setting [5]), the Body weight Difference, Mean stood at 41 g; the Body weight End Day 10, Mean was 398 g; the “Body weight Difference” value is 30 and 45 and 40 (2×) and 35 and 55. The “Body weight End Day 10” value in assay [1] (Group II, STD05 24 mg/kg, ARE 24 mg/kg, Chrysophanol 4 mg/kg, Emodin 4 mg/kg, in g (unit assumed)) is 370 and 395 and 405 and 360 and 410 and 445. Moreover, the intestinal motility in assay [2] is 67.9%. For the same substance, in assay [3] (Day 11), the Water content was determined as 52.70%, the Pellet count is 121 and the “Wet Weight” value came out at 29.21 g. Further, in assay [3] (Day 15), the Water content turned out to be 60.40%, the Pellet count is given as 119 and the “Wet Weight” value is given as 30.95 g. Besides, in assay [3] (Day 18), the Water content was determined as 47.30%, the Pellet count stood at 106 and the “Wet Weight” value was determined as 23.90 g. For the same substance, in assay [3] (Day 21), the Water content is 44.73%, the Pellet count was determined as 123 and the “Wet Weight” value stood at 27.80 g.

(Values after US8466202B2, “Anthracenedione compounds” (Sunten Phytotech Co., Ltd., priority 2006, dated 2013).)
